pEC50: −log10 of the molar value.
Tests used:
Format in all cases: functional, cell-based
[1] = molecular target: T1, Cannabinoid receptor 2 (Homo sapiens, UniProt P34972, V36M); assay: Partial agonist activity at CBR2 V361.35M mutant (unknown origin) expressed in HEK293T assessed as increase in ERK1/2 phosphorylation incubated for 7 mins by AlphaScreenSureFire method
[2] = system: Cannabinoid receptor 2 (Homo sapiens), P34972 [V113M]; assay: Partial agonist activity at CBR2 V1133.32M mutant (unknown origin) expressed in HEK293T assessed as increase in picometer shifts of reflected light wavelengths in presence of cannabidiol by DMR assay relative to control; conditions: filed as partial agonist
[3] = molecular target: T1, Cannabinoid receptor 2; assay: Partial agonist activity at CBR2 V361.35M mutant (unknown origin) stably expressed in HEK293T assessed as decrease in forskolin induced cAMP level preincubated for 15 mins followed by forskolin addition incubated for 15 mins by HTRF assay
[4] = molecular target: T2, Cannabinoid receptor 2 (Homo sapiens, UniProt P34972); assay: Partial agonist activity at wild type CB2 receptor (unknown origin) expressed in HEK293T assessed as increase in picometer shifts of reflected light wavelengths in presence of cannabidiol by DMR assay
[5] = molecular target: T2, Cannabinoid receptor 2; assay: Partial agonist activity at wild type CB2 receptor (unknown origin) expressed in HEK293T assessed as increase in ERK1/2 phosphorylation incubated for 7 mins in presence of cannabidiol by AlphaScreenSureFire method relative to control; conditions: filed as partial agonist
[6] = molecular target: T3, Cannabinoid receptor 2 (Homo sapiens, UniProt P34972, V113M); assay: Partial agonist activity at CBR2 V1133.32M mutant (unknown origin) expressed in HEK293T assessed as increase in picometer shifts of reflected light wavelengths by DMR assay
[7] = molecular target: Cannabinoid receptor 2 (Homo sapiens, UniProt P34972, S285L); assay: Partial agonist activity at CBR2 S2857.39L mutant (unknown origin) stably expressed in HEK293T assessed as decrease in forskolin induced cAMP level preincubated for 15 mins followed by forskolin addition incubated for 15 mins in presence of cannabidiol by HTRF assay
[8] = molecular target: T3, Cannabinoid receptor 2; assay: Partial agonist activity at CBR2 V1133.32M mutant (unknown origin) stably expressed in HEK293T assessed as decrease in forskolin induced cAMP level preincubated for 15 mins followed by forskolin addition incubated for 15 mins by HTRF assay
[9] = molecular target: T2, Cannabinoid receptor 2; assay: Partial agonist activity at wild type CB2 receptor (unknown origin) expressed in HEK293T assessed as increase in picometer shifts of reflected light wavelengths by DMR assay relative to control; conditions: filed as partial agonist
[10] = molecular target: T2, Cannabinoid receptor 2; assay: Partial agonist activity at wild type CB2 receptor (unknown origin) stably expressed in HEK293T assessed as decrease in forskolin induced cAMP level preincubated for 15 mins followed by forskolin addition incubated for 15 mins in presence of cannabidiol by HTRF assay relative to control; conditions: filed as partial agonist, time 30.0 min
[11] = molecular target: T1, Cannabinoid receptor 2; assay: Partial agonist activity at CBR2 V361.35M mutant (unknown origin) expressed in HEK293T assessed as increase in picometer shifts of reflected light wavelengths by DMR assay
[12] = molecular target: T4, Cannabinoid receptor 2 (Homo sapiens, UniProt P34972, A282M); assay: Partial agonist activity at CBR2 A2827.36M mutant (unknown origin) stably expressed in HEK293T assessed as decrease in forskolin induced cAMP level preincubated for 15 mins followed by forskolin addition incubated for 15 mins in presence of cannabidiol by HTRF assay
[13] = system: Cannabinoid receptor 2 (Homo sapiens), P34972 [S285L]; assay: Partial agonist activity at CBR2 S2857.39L mutant (unknown origin) expressed in HEK293T assessed as increase in ERK1/2 phosphorylation incubated for 7 mins in presence of cannabidiol by AlphaScreenSureFire method relative to control; conditions: filed as partial agonist
[14] = molecular target: T3, Cannabinoid receptor 2; assay: Partial agonist activity at CBR2 V1133.32M mutant (unknown origin) expressed in HEK293T assessed as increase in ERK1/2 phosphorylation incubated for 7 mins by AlphaScreenSureFire method
[15] = molecular target: T3, Cannabinoid receptor 2; assay: Partial agonist activity at CBR2 V1133.32M mutant (unknown origin) stably expressed in HEK293T assessed as decrease in forskolin induced cAMP level preincubated for 15 mins followed by forskolin addition incubated for 15 mins in presence of cannabidiol by HTRF assay
[16] = system: Cannabinoid receptor 2 (Homo sapiens), P34972 [A282M]; assay: Partial agonist activity at CBR2 A2827.36M mutant (unknown origin) expressed in HEK293T assessed as increase in ERK1/2 phosphorylation incubated for 7 mins in presence of cannabidiol by AlphaScreenSureFire method relative to control; conditions: filed as partial agonist
[17] = molecular target: T1, Cannabinoid receptor 2; assay: Partial agonist activity at CBR2 V361.35M mutant (unknown origin) expressed in HEK293T assessed as increase in ERK1/2 phosphorylation incubated for 7 mins in presence of cannabidiol by AlphaScreenSureFire method
[18] = molecular target: T2, Cannabinoid receptor 2; assay: Partial agonist activity at wild type CB2 receptor (unknown origin) stably expressed in HEK293T assessed as decrease in forskolin induced cAMP level preincubated for 15 mins followed by forskolin addition incubated for 15 mins in presence of cannabidiol by HTRF assay
[19] = molecular target: T1, Cannabinoid receptor 2; assay: Partial agonist activity at CBR2 V361.35M mutant (unknown origin) expressed in HEK293T assessed as increase in picometer shifts of reflected light wavelengths in presence of cannabidiol by DMR assay
[20] = system: Cannabinoid receptor 2 (Homo sapiens), P34972 [V113M]; assay: Partial agonist activity at CBR2 V1133.32M mutant (unknown origin) stably expressed in HEK293T assessed as decrease in forskolin induced cAMP level preincubated for 15 mins followed by forskolin addition incubated for 15 mins by HTRF assay relative to control; conditions: filed as partial agonist, time 30.0 min
[21] = system: Cannabinoid receptor 2 (Homo sapiens), P34972 [S285L]; assay: Partial agonist activity at CBR2 S2857.39L mutant (unknown origin) expressed in HEK293T assessed as increase in picometer shifts of reflected light wavelengths in presence of cannabidiol by DMR assay relative to control; conditions: filed as partial agonist
[22] = molecular target: T2, Cannabinoid receptor 2; assay: Partial agonist activity at wild type CB2 receptor (unknown origin) expressed in HEK293T assessed as increase in ERK1/2 phosphorylation incubated for 7 mins in presence of cannabidiol by AlphaScreenSureFire method
[23] = molecular target: T4, Cannabinoid receptor 2; assay: Partial agonist activity at CBR2 A2827.36M mutant (unknown origin) expressed in HEK293T assessed as increase in ERK1/2 phosphorylation incubated for 7 mins in presence of cannabidiol by AlphaScreenSureFire method
[24] = molecular target: T4, Cannabinoid receptor 2; assay: Partial agonist activity at CBR2 A2827.36M mutant (unknown origin) expressed in HEK293T assessed as increase in ERK1/2 phosphorylation incubated for 7 mins by AlphaScreenSureFire method
[25] = system: Cannabinoid receptor 2 (Homo sapiens), P34972 [S285L]; assay: Partial agonist activity at CBR2 S2857.39L mutant (unknown origin) stably expressed in HEK293T assessed as decrease in forskolin induced cAMP level preincubated for 15 mins followed by forskolin addition incubated for 15 mins by HTRF assay relative to control; conditions: filed as partial agonist, time 30.0 min
[26] = system: Cannabinoid receptor 2 (Homo sapiens), P34972 [V36M]; assay: Partial agonist activity at CBR2 V361.35M mutant (unknown origin) stably expressed in HEK293T assessed as decrease in forskolin induced cAMP level preincubated for 15 mins followed by forskolin addition incubated for 15 mins by HTRF assay relative to control; conditions: filed as partial agonist, time 30.0 min
Cannabinoid receptor 2 (Homo sapiens), P34972 [V36M], sequence (P34972 whole entry V36M): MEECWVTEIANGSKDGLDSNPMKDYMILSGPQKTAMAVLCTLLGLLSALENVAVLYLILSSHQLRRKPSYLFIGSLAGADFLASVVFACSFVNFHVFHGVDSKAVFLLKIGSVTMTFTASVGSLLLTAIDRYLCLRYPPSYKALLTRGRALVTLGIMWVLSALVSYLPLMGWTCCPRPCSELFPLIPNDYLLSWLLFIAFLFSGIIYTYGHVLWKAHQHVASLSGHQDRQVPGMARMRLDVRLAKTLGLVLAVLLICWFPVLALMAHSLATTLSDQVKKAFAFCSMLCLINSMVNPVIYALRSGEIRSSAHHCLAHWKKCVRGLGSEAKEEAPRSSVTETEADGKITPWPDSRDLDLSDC

T3 sequence (P34972 whole entry V113M): as the sequence (P34972 whole entry V36M) above, with M36V, V113M counted along it
T4 sequence (P34972 whole entry A282M): as the sequence (P34972 whole entry V36M) above, with M36V, A282M counted along it
T2 sequence (P34972 whole entry): as the sequence (P34972 whole entry V36M) above, with M36V counted along it
T1 sequence (P34972 whole entry V36M): as the sequence (P34972 whole entry V36M) above
Cannabinoid receptor 2 (Homo sapiens), P34972 [S285L], sequence (P34972 whole entry S285L): as the sequence (P34972 whole entry V36M) above, with M36V, S285L counted along it
Cannabinoid receptor 2 (Homo sapiens), P34972 [V113M], sequence (P34972 whole entry V113M): as the sequence (P34972 whole entry V36M) above, with M36V, V113M counted along it
Cannabinoid receptor 2 (Homo sapiens), P34972 [A282M], sequence (P34972 whole entry A282M): as the sequence (P34972 whole entry V36M) above, with M36V, A282M counted along it
Cannabinoid receptor 2 (Homo sapiens, UniProt P34972, S285L), sequence (P34972 whole entry S285L): as the sequence (P34972 whole entry V36M) above, with M36V, S285L counted along it

CCCC(C)(C)c1cc(O)c2c(c1)OC(C)(C)[C@@H]1CC=C(C)C[C@@H]21
pEC50 [1]: 7.50
Emax [2]: 71.9%
pEC50 [3]: 7.90
pEC50 [4]: 6.20
Emax [5]: 250%
pEC50 [6]: 6.30
pEC50 [7]: 7.40
pEC50 [8]: 7.70
Emax [9]: 183%
Emax [10]: 57.8%
pEC50 [11]: 6.20
pEC50 [12]: 8.10
Emax [13]: 291%
pEC50 [14]: 7.70
pEC50 [15]: 7.60
Emax [16]: 352%
pEC50 [17]: 7.40
pEC50 [18]: 7.30
pEC50 [19]: 6.20
Emax [20]: 72.5%
Emax [21]: 165%
pEC50 [22]: 8.10
pEC50 [23]: 7.90
pEC50 [24]: 7.70
Emax [25]: 49.3%
Emax [26]: 56.7%

Reference: ChEMBL document CHEMBL5096191 (J Med Chem, 2021)
